Data reported in patent publication US6924266B2, “NTP-peptides and method for removal of tumors” (Nymox Corporation, priority 2001, dated 2005).

Test system: muscle tissue, subcutaneous connective tissue, and dermis
Test: Effect on tissue at sites of injection in normal rats, histopathology at 24 hours
Format: in vivo
Conditions: for effect on tissue at sites of injection (histopathology): injected in skin, subcutaneously and in extremity skeletal muscle, in saline, 100 to 400 mL at 0.1-1 mg/mL, sacrificed at 24 hours; for muscle changes at injection sites compared with controls: extremity skeletal muscle injection; for muscle changes at injection sites compared with controls / spread of necrosis / cell death beyond the site of injection: 24 hours; for spread of necrosis / cell death beyond the site of injection: local injection
Protocol: (§1) Eight normal rats were injected in the skin and subcutaneously, each in four different foci, and in extremity skeletal muscle, each in two different foci, with NTP peptide #43 in saline in quantities of […] at concentrations of 0.1-1 mg/mL delivered from plastic syringes through stainless steel 26 gauge needles.
The 48 individual foci of infiltration were excised, fixed in 10% formalin, embedded in paraffin, and stained and examined by standard histopathological methods.
Similar groups of control rats were injected with (1) bovine serum albumin 0.1% in saline, (2) normal human serum, (3) physiological saline, (4) noninfectious bacterial proteins, and (5) control peptides and purified and then examined and sacrificed as above, with the excised foci of injection treated as above.
as §1, with “#17” for “#43”
The controls were the same as Example 1.
as §1, with “#20” for “#43”
as §1, with “#19” for “#43”
as §1, with “#16” for “#43”
as §1, with “#15” for “#43”
as §1, with “#14” for “#43”

| Sequence | effect on tissue at sites of injection (histopathology) | muscle changes at injection sites compared with controls | spread of necrosis / cell death beyond the site of injection |
| --- | --- | --- | --- |
| FILFFLRHRCPTL (listed as Homo sapiens) [NTP peptide #19] | cell death and necrosis of tissue at the injection sites | – | – |
| FILFFLRHRCPTLTQDEVQWCDHSS (listed as Homo sapiens) [NTP peptide #20] | cell death and necrosis of tissue at the injection sites | entire fields of muscle fiber layers were necrotic | did not appear to spread far beyond the site of injection |
| KCWDYRRAAVPGL (listed as Homo sapiens) [NTP peptide #14] | cell death and necrosis of tissue at the injection sites | – | – |
| KCWDYRRAAVPGLFILFFL (listed as Homo sapiens) [NTP peptide #15] | cell death and necrosis of tissue at the injection sites | – | – |
| KCWDYRRAAVPGLFILFFLRHRCP (listed as Homo sapiens) [NTP peptide #16] | cell death and necrosis of tissue at the injection sites | – | – |
| KCWDYRRAAVPGLFILFFLRHRCPTLTQDEVQWCDHSS (listed as Homo sapiens) [NTP peptide #17] | abundant acute necrosis of tissue at the injection sites | entire fields of muscle fiber layers were necrotic | did not appear to spread far beyond the site of injection |
